Results from PMC7217877, “N-AS-triggered SPMs are direct regulators of microglia in a model of Alzheimer’s disease” (Nature Communications, 2020).
Several values for one entry are separate records, joined by “and”; a condition that tells them apart may be missing. Equal values may be shown once.

B1: Sphk1: purified sphingosine kinase1 enzyme (Cayman, 10348) supplemented to cell lysates (protein, UniProt Q9NYA1 1-384, looked up)
Sphingosine kinase 1: MDPAGGPRGVLPRPCRVLVLLNPRGGKGKALQLFRSHVQPLLAEAEISFTLMLTERRNHARELVRSEELGRWDALVVMSGDGLMHEVVNGLMERPDWETAIQKPLCSLPAGSGNALAASLNHYAGYEQVTNEDLLTNCTLLLCRRLLSPMNLLSLHTASGLRLFSVLSLAWGFIADVDLESEKYRRLGEMRFTLGTFLRLAALRTYRGRLAYLPVGRVGSKTPASPVVVQQGPVDAHLVPLEEPVPSHWTVVPDEDFVLVLALLHSHLGSEMFAAPMGRCAAGVMHLFYVRAGVSRAMLLRLFLAMEKGRHMEYECPYLVYVPVVAFRLEPKDGKGVFAVDGELMVSEAVQGQVHPNYFWMVSGCVEPPPSWKPQQMPPPEEPL

Assays:
microglia = assay: quantification of 15R-LXA4, RvE1, RvD1 in primary cells (LC-MS/MS); type: cell-based, C57BL/6 mice; design: unit not given here; conditions: replicates
Description: Lipid mediators metabololipidomics were performed according to previously described procedures with minor modifications[4],[30]. To confirm the biosynthesis of lipid mediators by recombinant COX2 treated with N-AS or aspirin, 10 U of human recombinant COX2 (Cayman, 60122) was incubated in the presence of 500 μM aspirin (Sigma-Aldrich, A5376) or N-AS (Sigma-Aldrich, 01912) at 37 °C for 30 min. The enzyme was filtered with a Microcon column (Millipore) to remove unreacted aspirin or N-AS and was then resuspended in 0.1 M Tris-HCl (pH 8.0). Next, 500 μM phenol (Sigma-Aldrich) and 1 μM hematin-porcine (Sigma-Aldrich) were added immediately before incubation with 100 μM AA, EPA or DHA (Cayman) at 37 °C for 2 h, respectively. The mixtures were incubated with 30 U of human 5-LOX (Cayman, 60402) containing 2 mM CaCl2 (Sigma-Aldrich), 1 mM ATP (Amresco) and 5 μM 13-HpODE (Cayman) as activators. Also, to validate the importance of residue S565 for N-AS-acetylation of COX2 and production of SPMs, 10 U of the COX2 S565A mutant was used in the above-described method. In addition, to confirm SPM generation in neurons and microglia, these cells were treated with Aβ and sonicated in neuronal and glial culture medium. […] To evaluate the relationship of N-AS and SPM production in microglia, microglia were isolated from WT, APP/PS1, and APP/PS1 treated with N-AS mice at 9 months of age. The microglia were sonicated and resuspended in microglial culture medium. The supernatants were incubated with 100 μM AA, EPA, and DHA (Cayman) at 37 °C for 2 h. A 50 μl aliquot of the mixture from each cell lysate was added to a 250 μl aliquot of 1 ng ml^−1 of 15S-LXA4-d5 (internal standard, Cayman) methanol solution. After vortexing for 10 min and centrifuging at 15,974×g for 5 min, the supernatant was subjected to the analysis of the lipid mediators using an Agilent 6470 Triple Quad LC-MS/MS system (Agilent) coupled to an Agilent 1290 HPLC system. Chromatographic separation was achieved using a Synergi Polar RP (4 μm, 2.0 mm i.d. × 150 mm, Phenomenex). Analytes were eluted with a mobile phase consisting of water: formic acid (100:0.1 v/v) (phase A) and methanol: formic acid (100:0.1 v/v) (phase B) in gradient elution mode for 23 min a flow rate of 0.2 ml min^−1. The elution gradient was as follows: from 0 to 0.1 min the content of phase A was 37% and the content of phase A was decreased to 10% and maintained for 5.5 min. The content of phase A was increased back to 37% at 6.0 min and maintained for 23 min. Quantification was carried out using MRM in negative ionization mode and collision energy of 10–15 eV. The mass transition from Q1 to Q3 is shown in Supplementary Table 2. In this study, the peak areas for all components were automatically integrated using MassHunter B 06.00. […]

neuron = assay: western blotting for ac-S565 and total COX2 in primary cells; type: cell-based, C57BL/6 mice; conditions: replicates

Molecule	15R-LxA4 (Fig 3i) (microglia; Ab + supplement)	RvD1 (Fig 3i) (microglia; Ab + supplement)	RvE1 (Fig 3i) (microglia; Ab + supplement)	ac-S565, western blotting (Fig 3h) (neuron; Ab 10mM + supplement)	15R-LxA4 (Fig 3i) (microglia; Ab, no supplement)	RvD1 (Fig 3i) (microglia; Ab, no supplement)	RvE1 (Fig 3i) (microglia; Ab, no supplement)	ac-S565, western blotting (Fig 3h) (neuron; Ab 10mM, no supplement)	ac-S565 / total COX2, western blotting (Fig 3b) (neuron; Ab 10mM)
CC(=O)SCCNC(=O)CCNC(=O)[C@H](O)C(C)(C)COP(=O)(O)OP(=O)(O)OC[C@H]1O[C@@H](n2cnc3c(N)ncnc32)[C@H](O)[C@@H]1OP(=O)(O)O [Acetyl-CoA, acetyl-CoA]	23.4411 and 23.4018 and 22.7231 and 22.8804 and 24.0018 and 22.8017	1.293 and 1.217 and 1.321 and 1.255 and 1.269 and 1.288	7.62 and 7.421 and 7.916 and 7.52 and 7.668 and 7.718	0.4974 and 0.4784 and 0.4801 and 0.5239					
CCCCCCCCCCCCC/C=C/[C@@H](O)[C@H](CO)NC(C)=O [N-AS, N-((2S,3R,E)-1,3-Dihydroxyoctadec-4-en-2-yl)acetamide]	7.914 and 7.871 and 7.582 and 7.755 and 8.0725 and 7.669	0.9961 and 0.9192 and 1.008 and 0.9576 and 0.9636 and 0.9828	3.41 and 3.669 and 3.726 and 3.54 and 3.698 and 3.633	1.382 and 1.374 (2×) and 1.247					
CCCCCCCCCCCCC/C=C/[C@@H](O)[C@@H](N)CO [Sph, sphingosine]	0.0305 and 0.03209 and 0.03444 and 0.02809 and 0.03291 and 0.03127	0.01033	0.01434 and 0.01128 and 0.01433 and 0.01281 (2×) and 0.01357	0.6309 and 0.6553 and 0.6332 and 0.656					
Ab: Aβ 1–42 (Invitrogen, 03112) used to induce an AD environment in cells					0.02349 and 0.02377 and 0.02373 and 0.02259 and 0.02438 and 0.02316	0.01012	0.01237 and 0.02326 and 0.01244 and 0.01782 and 0.01785 and 0.01513	0.4287 and 0.5828 and 0.4634 and 0.6503	0.7374 and 0.6807 and 0.7791 and 0.4902 and 0.709 and 0.7299
B1	0.02407 and 0.02353 and 0.02184 and 0.02402 and 0.02413 and 0.02293	0.01112	0.01218 and 0.0124 and 0.01241 (2×) and 0.01229 and 0.01235	1.248 and 1.156 and 1.263 and 1.199					
